In US6479515B1, “Heterocyclic benzenesulphonamide compounds as bradykinine antagonists” (Fournier Industrie et Sante, priority 1999, dated 2002):
Where a name gives a salt, the structure may show the parent alone. Read-outs that look alike come from different tables or passages of the source.

Experiments:
[1] = target: T1, bradykinin B2 receptor (Homo sapiens, UniProt P30411); assay: inhibition of the contraction of the isolated human umbilical vein in the presence of bradykinin; type: cell-based
T1 construct: from tissue; host or cells: isolated human umbilical vein
T1 sequence (P30411 1-391): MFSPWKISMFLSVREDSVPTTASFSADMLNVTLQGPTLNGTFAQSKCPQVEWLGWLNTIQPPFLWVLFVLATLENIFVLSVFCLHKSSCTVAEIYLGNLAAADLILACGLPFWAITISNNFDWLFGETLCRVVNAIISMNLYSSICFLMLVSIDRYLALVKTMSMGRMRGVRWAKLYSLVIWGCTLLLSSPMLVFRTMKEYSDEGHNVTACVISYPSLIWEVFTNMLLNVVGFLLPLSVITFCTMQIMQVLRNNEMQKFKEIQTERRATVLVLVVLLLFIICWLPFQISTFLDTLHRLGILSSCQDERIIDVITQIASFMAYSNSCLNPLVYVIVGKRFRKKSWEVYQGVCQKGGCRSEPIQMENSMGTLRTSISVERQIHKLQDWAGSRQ
Excerpt: This antagonist character is expressed by the value pA2, calculated according to a biological test employed in order to measure the inhibition of the contraction of the isolated human umbilical vein by the compounds according to the invention in the presence of bradykinin. The test procedure and the method of calculation of pA2 are described in the articles of D. Pruneau et al. published in Br. J. Pharmacol. 1998, 125, p 365-372 and J L. Paquet et al. Br. J. Pharmacol. 1999, 126 (in print).

[2] = target: T2, human B2 receptor (Homo sapiens, UniProt P30411); assay: competitive binding test on CHO cell membranes expressing the human B2 receptor using [3H]-bradykinin as ligand
T2 construct: expressed in transfected cells; host or cells: CHO cells (membranes)
T2 sequence (P30411 1-391): T1 sequence (P30411 1-391)
Protocol: The activity of the products according to the invention was evaluated, according to a first aspect, as a function of their aptitude to bind to the bradykinin B2 receptors. […] It is likewise known that bradykinin is amongst one of the most powerful algesic agents known. The mode of action of kinins and more particularly of bradykinin makes a coupling of the peptides to the two types of receptors called B1 and B2 respectively take place. The B2 receptor belongs to the large family of receptors with seven transmembrane domains coupled to the G proteins and seems to be more particularly involved in the field of the pathologies mentioned above. This is the reason why the products of the invention, which have the property of being able to bind to the B2 receptor, inhibit the binding of bradykinin and, consequently, suppress its harmful activity. The test employed in order to measure this property is a competitive binding test on CHO cell membranes expressing the human B2 receptor using bradykinin labelled with tritium ([^3H]-bradykinin) as ligand.
The results are expressed by the Ki value, as calculated according to the recommended method with the description of the test employed and described according to D. Pruneau et al., in Br. J. Pharmacol. 1998, 125 p 365-372.

[3] = isolated human umbilical vein, contraction in the presence of bradykinin
[4] = isolated human umbilical vein, contraction in the presence of bradykinin, read-out: pA2 (converted)

Molecule | pA2 [1, 3] | Ki [2] | Kb [1] | Kb [1, 4]
1-[[2,4-Dichloro-3-[[[4-(1H-imidazol-1-yl)-2-methyl-8-quinolinyl]oxy]methyl]-phenyl]sulphonyl]-N-[2-(4-morpholinyl)ethyl]-2(S)-pyrrolidinecarboxamide, hemisulphate [Example 48] | 8.5 | 32 nM | – | –
Cc1cc(-n2ccnc2)c2cccc(OCc3c(Cl)ccc(S(=O)(=O)N4CCC[C@H]4C(=O)NCC4CCN(CCCCO)CC4)c3Cl)c2n1 [Example 32, 1-[[2,4-Dichloro-3-[[[4-(1H-imidazol-1-yl)-2-methyl-8-quinolinyl]oxy]methyl]-phenyl]sulphonyl]-N-[[1-(4-hydroxybutyl)-4-piperidinyl]methyl]-2(S)-pyrrolidinecarboxamide, tartrate] | – | 1.4 nM | 0.794 nM | –
Cc1cc(-n2ccnc2)c2cccc(OCc3c(Cl)ccc(S(=O)(=O)N4C[C@H](O)C[C@H]4C(=O)NCC4CCNCC4)c3Cl)c2n1 [Example 42, 1-[[2,4-Dichloro-3-[[[4-(1H-imidazol-1-yl)-2-methyl-8-quinolinyl]oxy]methyl]-phenyl]sulphonyl]-4(R)-hydroxy-N-(4-piperidinemethyl)-2(S)-pyrrolidine-carboxamide, ditartrate] | – | 77 nM | – | 5.01 nM
Cc1cc(-n2ccnc2)c2cccc(OCc3c(Cl)ccc(S(=O)(=O)N4CCC[C@H]4C(=O)N(C)CCN(C)CCCCO)c3Cl)c2n1 [Example 103, 1-[[2,4-Dichloro-3-[[[4-(1H-imidazol-1-yl)-2-methyl-8-quinolinyl]oxy]methyl]-phenyl]sulphonyl]-N-methyl-N-[2-[[4-(hydroxy)butyl](methyl)amino]ethyl]-2(S)-pyrrolidinecarboxamide, methanesulphonate] | – | 21 nM | – | 12.6 nM
Cc1cc(-n2cncn2)c2cccc(OCc3c(Cl)ccc(S(=O)(=O)N4CCC[C@H]4C(=O)NCCN(C)C)c3Cl)c2n1 [Example 83, 1-[[2,4-Dichloro-3-[[[2-methyl-4-(1H-1,2,4-triazol-1-yl)-8-quinolinyl]oxy]-methyl]phenyl]sulphonyl]-N-[2-(dimethylamino)ethyl]-2(S)-pyrrolidine-carboxamide, tartrate] | – | 14 nM | 12.6 nM | –
1-[[2,4-Dichloro-3-[[[4-(1H-imidazol-1-yl)-2-methyl-8-quinolinyl]oxy]methyl]-phenyl]sulphonyl]-N-[3-(dimethylamino)propyl]-N-methyl-2(S)-pyrrolidine-carboxamide, hemisulphate [Example 61] | 8.1 | 21 nM | – | –
1-[[2,4-Dichloro-3-[[2(L)-[[4-(2-pyridinyl)-1-piperazinyl]carbonyl]-1-pyrrolidinyl]sulphonyl]-N-methyl-N-[3-[[3-(hydroxy)propyl]-(methyl)amino]propyl]-2(S)-pyrrolidinecarboxamide, methanesulphonate [Example 105] | 8.3 | 7.7 nM | – | –
Cc1cc(-n2ccnc2)c2cccc(OCc3c(Cl)ccc(S(=O)(=O)N4CCC[C@H]4C(=O)NCC4CCN(CCOCCO)CC4)c3Cl)c2n1 [Example 12, 1-[[2,4-Dichloro-3-[[[4-(1H-imidazol-1-yl)-2-methyl-8-quinolinyl]oxy]methyl]-phenyl]sulphonyl]-N-[[1-[2-(2-hydroxyethoxy)ethyl]-4-piperidinyl]methyl]-2(S)-pyrrolidinecarboxamide, tartrate] | – | 0.47 nM | 2 nM | –
Cc1cc(-n2ccnc2)c2cccc(OCc3c(Cl)ccc(S(=O)(=O)N4CCC[C@H]4C(=O)NCc4ccccn4)c3Cl)c2n1 [Example 89, 1-[[2,4-Dichloro-3-[[[4-(1H-imidazol-1-yl)-2-methyl-8-quinolinyl]oxy]methyl]-phenyl]sulphonyl]-N-[(2-pyridinyl)methyl]-2(S)-pyrrolidinecarboxamide, methanesulphonate] | – | 55 nM | – | 10 nM
Cc1cc(-n2cncn2)c2cccc(OCc3c(Cl)ccc(S(=O)(=O)N4CCC[C@H]4C(=O)NCCCN4CCCC4)c3Cl)c2n1 [Example 87, 1-[[2,4-Dichloro-3-[[[2-methyl-4-(1H-1,2,4-triazol-1-yl)-8-quinolinyl]oxy]-methyl]phenyl]sulphonyl]-N-[3-(1-pyrrolidinyl)propyl]-2(S)-pyrrolidine-carboxamide, methanesulphonate] | – | 15 nM | – | 6.31 nM
Cc1cc(-n2cncn2)c2cccc(OCc3c(Cl)ccc(S(=O)(=O)N4CCC[C@H]4C(=O)NCC4CCN(CCO)CC4)c3Cl)c2n1 [Example 166, 1-[[2,4-Dichloro-3-[[[2-methyl-4-(1H-1,2,4-triazol-1-yl)-2-methyl-8-quinolinyl]oxy]methyl]phenyl]sulphonyl]-N-[[1-(2-(hydroxyethyl)-4-piperidinyl]methyl]-2(S)-pyrrolidinecarboxamide, methanesulphonate] | – | 5.8 nM | – | 6.31 nM
Cc1cc(-n2ccnc2)c2cccc(OCc3c(Cl)ccc(S(=O)(=O)N4CCC[C@H]4C(=O)NCC4CCN(CCO)CC4)c3Cl)c2n1 [64 A] | – | 0.034 nM | – | 0.501 nM
CNCCCNC(=O)[C@@H]1CCCN1S(=O)(=O)c1ccc(Cl)c(COc2cccc3c(-n4ccnc4)cc(C)nc23)c1Cl [Example 123, 1-[[2,4-Dichloro-3-[[[4-(1H-imidazol-1-yl)-2-methyl-8-quinolinyl]oxy]methyl]-phenyl]sulphonyl]-N-[3-(methylamino)propyl]-2(S)-pyrrolidinecarboxamide, trifluoroacetate] | – | 8.1 nM | 3.98 nM | –
Cc1cc(-n2ccnc2)c2cccc(OCc3c(Cl)ccc(S(=O)(=O)N4CCC[C@H]4C(=O)NCC4CCN(CCC(=O)O)CC4)c3Cl)c2n1 [Example 115, 4-[[[[1-[[2,4-Dichloro-3-[[[4-(1H-imidazol-1-yl)-2-methyl-8-quinolinyl]oxy]-methyl]phenyl]sulphonyl]-2(S)-pyrrolidinyl]carbonyl]amino]methyl]-1-piperidinepropanoic acid, tartrate] | – | 35 nM | 3.16 nM | –
Cc1cc(-n2ccnc2)c2cccc(OCc3c(Cl)ccc(S(=O)(=O)N4CCC[C@H]4C(=O)NCC4CCN(Cc5ccccn5)CC4)c3Cl)c2n1 [Example 109, 1-[[2,4-Dichloro-3-[[[4-(1H-imidazol-1-yl)-2-methyl-8-quinolinyl]oxy]methyl]-phenyl]sulphonyl]-N-[[1-(2-pyridinylmethyl)-4-piperidinyl]methyl]-2(S)-pyrrolidinecarboxamide, methanesulphonate] | – | 15 nM | – | 5.01 nM
Cc1cc(-n2ccnc2)c2cccc(OCc3c(Cl)ccc(S(=O)(=O)N4CCC[C@H]4C(=O)N(C)CCN(C)C)c3Cl)c2n1 [Example 73, 1-[[2,4-Dichloro-3-[[[4-(1H-imidazol-1-yl)-2-methyl-8-quinolinyl]oxy]methyl]-phenyl]sulphonyl]-N-[2-(dimethylamino)ethyl]-N-methyl-2(S)-pyrrolidine-carboxamide, tartrate] | – | 10 nM | 3.98 nM | –
Cc1cc(-n2ccnc2)c2cccc(OCc3c(Cl)ccc(S(=O)(=O)N4CCC[C@H]4C(=O)NCCCNC(=O)c4ccc(C(=N)N)cc4)c3Cl)c2n1 [Example 4, N-[3-[[4-(Aminoiminomethyl)benzoyl]amino]propyl]-1-[[2,4-dichloro-3-[[[4-(1H-imidazol-1-yl)-2-methyl-8-quinolinyl]oxy]methyl]phenyl]sulphonyl]-2(S)-pyrrolidinecarboxamide, bis methanesulphonate] | – | 0.24 nM | – | 0.1 nM
Cc1cc(-n2ccnc2)c2cccc(OCc3c(Cl)ccc(S(=O)(=O)N4CCC[C@H]4C(=O)N(C)CCN(C)CCCO)c3Cl)c2n1 [Example 101, 1-[[2,4-Dichloro-3-[[[4-(1H-imidazol-1-yl)-2-methyl-8-quinolinyl]oxy]methyl]-phenyl]sulphonyl]-N-methyl-N-[2-[[3-(hydroxy)propyl](methyl)amino]ethyl]-2(S)-pyrrolidinecarboxamide, methanesulphonate] | – | 50 nM | – | 3.98 nM
Cc1cc(-n2ccnc2)c2cccc(OCc3c(Cl)ccc(S(=O)(=O)N4CCC[C@H]4C(=O)NCCCN4CCCC4)c3Cl)c2n1 [Example 77, 1-[[2,4-Dichloro-3-[[[4-(1H-imidazol-1-yl)-2-methyl-8-quinolinyl]oxy]methyl]-phenyl]sulphonyl]-N-[3-(1-pyrrolidinyl)propyl]-2(S)-pyrrolidinecarboxamide, tartrate] | – | 6.1 nM | 2.51 nM | –
